According to patent US12311044B2, “Antimicrobial composition” (priority 2018, dated 2025):

Test system: total salivary bacterial pool (mixed oral bacteria)
Assay: Malodour assay using lead acetate paper (H2S production by pooled salivary bacteria)
Assay type: cell-based
Set-up: concentration or dose not given beside the values
Settings: pooled human saliva bacteria OD 0.4, 96 well plate, incubated overnight, ΔE of lead acetate paper; actives at the weight % of the composition
Method: Malodour Assay Using Lead Acetate Paper:
The following tests were done to find out the efficacy of different compositions inside and outside the scope of the present invention:
The early morning saliva from different volunteer (5 samples) were pooled and centrifuged (Eppendorf refrigerated centrifuge 5810R at 6300 rcf/11.5 G) for 10 minutes. After that, the Supernatant which is saliva and the pellet—mixed bacterial pool (oral bacteria e.g. Streptococcus. mitis, Streptococcus. mutans, Nisseria. flava, Rothia. dentocariosa etc.,) was separated. The saliva was then filter sterilized by passing through the 50 mL conical 0.2 μm PES sterile filter (VWR lab products limited). The OD of total salivary bacterial pool culture was adjusted to 0.4 by spectrophotometer (Shimadzu UV Spectrophotometer—UV-1800) for higher pool of bacteria which is required for the assay. The assay was set up in a 96 well plate with respective culture control and DMSO control. The total reaction volume was 200 μL/well which comprises of the following: 45 μl 0.1% L-cysteine-HCl (Sigma, C1276)+TSB (Bacto, 211825, 30 g/L)+50 μL sterile Saliva+75 μL Culture+30 μL active (as per the weight % disclosed in the following table 2)+sterile distilled water.
Then the actives at desired concentration were added and the remaining volume was adjusted with sterile distilled water. After that, the wells were mixed well, and lead acetate filter was placed above the wells to capture the H2S released by the bacteria. […] The intensity of the spots was measured using a LAB reader (Minolta spectrophotometer CM 2600D). The colour reading was expressed in LAB, L* defines lightness, A* denotes the red/green value and B* the yellow/blue value. Then ΔL, ΔA and ΔB is calculated using this formula ΔL=L control−L sample, ΔA=L control−L sample, AB=L control−L sample. The total colour difference which is expressed as ΔE is calculated using this formula ΔE=√{square root over (((ΔL)^2+(ΔA)^2+(ΔB)^2))}. […] The total fold change of H2S inhibition over the control was calculated for the individual actives.

Compound | Fold Change (total fold change of H2S inhibition over the control)
C=CCc1ccc(O)c(-c2ccc(O)c(CC=C)c2)c1 [C, honokiol] | 1.5 ± 1.8
CC(O)CN(CCN(CC(C)O)CC(C)O)CC(C)O (stereo not drawn) [Example A, tetrahydroxypropyl ethylenediamine] | 0.9±0.3
C=CCc1ccc(O)c(-c2ccc(O)c(CC=C)c2)c1 [B, honokiol] | 1.6 ± 1.8
